Source: ChEMBL document CHEMBL4011592, “Synthesis and evaluation of 7-substituted-5,6-dihydrobenzo[c]acridine derivatives as new c-KIT promoter G-quadruplex binding ligands” (Eur J Med Chem, 2017)
pIC50, pKd: −log10 of the molar value. Calls of active or inactive are those of the source. The calls are words filed in the database; no cut-off is given here.

Legend:
[1] = Binding affinity to 5'-FAM/3'-TAMARA labelled c-KIT1 G-quadruplex DNA (unknown origin) assessed as change in melting temperature at 2 uM by FRET assay
[2] = Binding affinity to F10T duplex DNA (unknown origin) assessed as change in melting temperature at 2 uM by FRET assay
[3] = Binding affinity to 5'-FAM/3'-TAMARA labelled c-KIT1 G-quadruplex DNA (unknown origin) assessed as change in melting temperature at 1 uM by FRET assay
[4] = Binding affinity to 5'-FAM/3'-TAMARA labelled c-KIT2 G-quadruplex DNA (unknown origin) assessed as change in melting temperature at 1 uM by FRET assay
[5] = Binding affinity to F10T duplex DNA (unknown origin) assessed as change in melting temperature at 1 uM by FRET assay
[6] = Binding affinity to 5'-FAM/3'-TAMARA labelled c-KIT1 G-quadruplex DNA (unknown origin) assessed as change in melting temperature at 2 uM in presence ds26 DNA by FRET assay
[7] = Binding affinity to biotinylated c-KIT1 G-quadruplex DNA (unknown origin) by SPR assay
[8] = Binding affinity to biotinylated duplex DNA (unknown origin) by SPR assay
[9] = Selectivity ratio of Kd for biotinylated duplex DNA (unknown origin) to Kd for biotinylated c-KIT1 G-quadruplex DNA (unknown origin)
K562 = experiment: Cytotoxicity against human K562 cells after 48 hrs by MTT assay; type: functional, cell-based; settings: K562, 48 h
A549 = experiment: Cytotoxicity against human A549 cells after 48 hrs by MTT assay; type: functional, cell-based; settings: A549, 48 h
HeLa = experiment: Cytotoxicity against human HeLa cells after 48 hrs by MTT assay; type: functional, cell-based
BJ = experiment: Cytotoxicity against human BJ cells after 48 hrs by MTT assay; type: cell-based
[10] = Binding affinity to c-KIT2 G-quadruplex DNA (unknown origin) assessed as ability to promote c-KIT G-rich sequences to form parallel G-quadruplex at 25 uM in absence of KCl measured after 10 mins by CD-spectroscopic analysis
[11] = Binding affinity to c-KIT1 G-quadruplex DNA (unknown origin) assessed as ability to promote c-KIT G-rich sequences to form parallel G-quadruplex at 25 uM in absence of KCl measured after 10 mins by CD-spectroscopic analysis
[12] = Binding affinity to c-KIT1 G-quadruplex DNA (unknown origin) assessed as maintainance of parallel c-KIT G-quadruplex conformation at 5 uM in presence of KCl measured after 10 mins by CD-spectroscopic analysis
[13] = Binding affinity to c-KIT2 G-quadruplex DNA (unknown origin) assessed as maintainance of parallel c-KIT G-quadruplex conformation at 5 uM in presence of KCl measured after 10 mins by CD-spectroscopic analysis
[14] = Binding affinity to c-KIT1 G-quadruplex DNA (unknown origin) assessed as hyperchromicity at 10 uM measured after 10 mins by UV-vis spectroscopic method
[15] = Binding affinity to c-KIT1 G-quadruplex DNA (unknown origin) assessed as red shift at 10 uM measured after 10 mins by UV-vis spectroscopic method
[16] = Binding affinity to c-KIT1 G-quadruplex DNA (unknown origin) assessed as isosbestic point at 10 uM measured after 10 mins by UV-vis spectroscopic method
[17] = Binding affinity to c-KIT1 G-quadruplex DNA (unknown origin) measured after 10 mins by UV-vis spectroscopic method
[18] = Binding affinity to c-KIT1 G-quadruplex DNA (unknown origin) assessed as hyperchromicity at 5 uM measured after 10 mins by fluorescence spectroscopic method
[19] = Binding affinity to c-KIT1 G-quadruplex DNA (unknown origin) assessed as 1:1 binding stoichiometry between compound and G-quadruplex DNA by Job's plot method
[20] = Binding affinity to c-KIT1 G-quadruplex DNA (unknown origin) assessed as 1:1 binding stoichiometry between compound and G-quadruplex DNA 10 uM by ESI-MS spectra analysis

| ΔTm [1] | ΔTm [2] | ΔTm [3] | ΔTm [4] | ΔTm [5] | Activity [6] | pKd [7] | pKd [8] | Selectivity ratio [9] | Compound | pIC50 (K562) | pIC50 (A549) | pIC50 (HeLa) | pIC50 (BJ) | further results |
| --- | --- | --- | --- | --- | --- | --- | --- | --- | --- | --- | --- | --- | --- | --- |
| 12.2 °C | 0.7 °C | 4.4 °C | 4.4 °C | 0.2 °C | Active | 5.55 | < 4.70 | > 7.1 | COc1cc2c(cc1OC)-c1c(cc3c(OCCCN4CCCCC4)c(OC)ccc3[n+]1C)CC2 | – | – | – | – | – |
| 15.7 °C | 0.9 °C | 9.8 °C | 6.5 °C | 0.6 °C | Active | 5.57 | 5.23 | 2.2 | CCN(CC)CCNc1c2c(nc3ccccc13)-c1cc(OC)c(OC)cc1CC2 | 5.10 | 5.24 | 4.75 | 4.64 | – |
| 7.4 °C | 0.3 °C | 6.7 °C | 2.8 °C | 0.8 °C | Active | 5.10 | < 4.70 | > 2.5 | COc1cc2c(cc1OC)-c1c(c(NCCN(C)C)c3ccccc3[n+]1C)CC2 | 4.47 | < 4.30 | < 4.30 | < 4.30 | – |
| 16.4 °C | 0.9 °C | 12.1 °C | 6.7 °C | 0.7 °C | Active | 5.38 | 5.03 | 2.2 | COc1cc2c(cc1OC)-c1nc3ccccc3c(NCCN(C)C)c1CC2 | 4.59 | 5.25 | 4.93 | 4.72 | – |
| 10.8 °C | 0.4 °C | 7.5 °C | 3.6 °C | 0.9 °C | Active | 5.13 | < 4.70 | > 2.7 | CCN(CC)CCCNc1c2c([n+](C)c3ccccc13)-c1cc(OC)c(OC)cc1CC2 | 4.43 | < 4.30 | < 4.30 | < 4.30 | Activity [10]: Active; Activity [11]: Active; Activity [12]: Active; Activity [13]: Active; Activity [14]: Active; Activity [15]: Active; Activity [16]: Active; pKd [17]: 5.04; Activity [18]: Active; Activity [19]: Active; Activity [20]: Active |
| 11.3 °C | 0.4 °C | 7.7 °C | 3.7 °C | 0.9 °C | Active | 5.66 | < 4.70 | > 9.1 | COc1cc2c(cc1OC)-c1c(c(NCCN3CCCC3)c3ccccc3[n+]1C)CC2 | < 4.30 | 4.44 | 4.35 | 4.44 | – |
| 22.6 °C | 2 °C | 17.4 °C | 9 °C | 1.7 °C | Active | 5.48 | 4.77 | 5.2 | COc1cc2c(cc1OC)-c1nc3ccccc3c(NCCN3CCN(C)CC3)c1CC2 | 4.64 | 5.52 | 5.28 | 5.10 | – |
| 7.8 °C | 0.2 °C | 4.7 °C | 2.6 °C | 0.1 °C | Active | 5.11 | < 4.70 | > 2.6 | COc1cc2c(cc1OC)-c1nc3ccccc3c(NCCN3CCCCC3)c1CC2 | 4.88 | 4.73 | 4.40 | < 4.30 | – |
| 20.2 °C | 2.1 °C | 11.6 °C | 8.1 °C | 1.4 °C | Active | 5.41 | < 4.70 | > 5.1 | COc1cc2c(cc1OC)-c1nc3ccccc3c(NCCCN3CCCCC3)c1CC2 | 5.41 | 5.36 | 5.00 | 4.91 | – |
| 16.7 °C | 1.2 °C | 11.1 °C | 6.2 °C | 0.8 °C | Active | 5.60 | 5.11 | 3.1 | COc1cc2c(cc1OC)-c1nc3ccccc3c(NCCN3CCCC3)c1CC2 | 5.32 | 5.55 | 5.34 | 5.28 | – |
| 20.5 °C | 2.9 °C | 10.8 °C | 8.6 °C | 1.1 °C | Active | 5.54 | < 4.70 | > 6.9 | COc1cc2c(cc1OC)-c1nc3ccccc3c(NCCCN3CCCC3)c1CC2 | 5.38 | 5.41 | 5.37 | 5.17 | – |
| 0.2 °C | 0.1 °C | 0.1 °C | 0.1 °C | 0.7 °C | – | < 4.70 | < 4.70 | – | COc1cc2c(cc1OC)-c1nc3ccccc3c(Cl)c1CC2 | – | – | – | – | – |
| 6.6 °C | 0.5 °C | 3.4 °C | 0.6 °C | 0.5 °C | – | 5.55 | < 4.70 | > 7.1 | CCN(CC)CCCNC(=O)c1c2c(nc3ccccc13)-c1cc(OC)c(OC)cc1CC2 | < 4.30 | < 4.30 | < 4.30 | < 4.30 | – |
| 22.9 °C | 1.6 °C | 18.7 °C | 8.6 °C | 1.3 °C | Active | 5.55 | < 4.70 | > 7.1 | COc1cc2c(cc1OC)-c1nc3ccccc3c(NCCCN3CCN(C)CC3)c1CC2 | 5.38 | 5.19 | 5.02 | 4.86 | – |
| 10.7 °C | 0.3 °C | 8.6 °C | 3.7 °C | 0.8 °C | Active | 5.24 | < 4.70 | > 3.4 | COc1cc2c(cc1OC)-c1c(c(NCCCN(C)C)c3ccccc3[n+]1C)CC2 | < 4.30 | < 4.30 | < 4.30 | < 4.30 | – |
| 14 °C | 0.3 °C | 10.7 °C | 4.7 °C | 1.1 °C | Active | 5.48 | < 4.70 | > 6.1 | COc1cc2c(cc1OC)-c1c(c(NCCCN3CCCC3)c3ccccc3[n+]1C)CC2 | 4.72 | < 4.30 | < 4.30 | < 4.30 | – |
| 5.2 °C | 0.6 °C | 3.3 °C | 0.6 °C | 0.3 °C | – | 5.43 | < 4.70 | > 5.4 | COc1cc2c(cc1OC)-c1nc3ccccc3c(C(=O)NCCCN3CCCCC3)c1CC2 | < 4.30 | < 4.30 | < 4.30 | < 4.30 | – |
| 3.4 °C | 0.6 °C | 2.2 °C | 0.6 °C | 0.1 °C | – | < 4.70 | < 4.70 | – | COc1cc2c(cc1OC)-c1nc3ccccc3c(C(=O)NCCN3CCCC3)c1CC2 | < 4.30 | < 4.30 | < 4.30 | < 4.30 | – |
| 10.3 °C | 0.5 °C | 8.5 °C | 3.3 °C | 0.9 °C | Active | 5.41 | < 4.70 | > 5.1 | CCN(CC)CCNc1c2c([n+](C)c3ccccc13)-c1cc(OC)c(OC)cc1CC2 | 4.60 | < 4.30 | < 4.30 | < 4.30 | – |
| 20.4 °C | 2.3 °C | 12.3 °C | 9 °C | 1.3 °C | Active | 5.46 | < 4.70 | > 5.7 | COc1cc2c(cc1OC)-c1nc3ccccc3c(NCCCN(C)C)c1CC2 | 5.17 | 5.44 | 5.29 | 5.38 | – |
